Assays:
Details in all cases: binder
BRD4 = BRD4 (Homo sapiens, UniProt O60885)
CK1d = CK1d (Homo sapiens, UniProt P48730)
CaMK1g = CaMK1g (Homo sapiens, UniProt Q96NX5)
DMPK1 = molecular target: T1, DMPK1 (Homo sapiens, UniProt Q09013)
T1 sequence (Q09013 1-629): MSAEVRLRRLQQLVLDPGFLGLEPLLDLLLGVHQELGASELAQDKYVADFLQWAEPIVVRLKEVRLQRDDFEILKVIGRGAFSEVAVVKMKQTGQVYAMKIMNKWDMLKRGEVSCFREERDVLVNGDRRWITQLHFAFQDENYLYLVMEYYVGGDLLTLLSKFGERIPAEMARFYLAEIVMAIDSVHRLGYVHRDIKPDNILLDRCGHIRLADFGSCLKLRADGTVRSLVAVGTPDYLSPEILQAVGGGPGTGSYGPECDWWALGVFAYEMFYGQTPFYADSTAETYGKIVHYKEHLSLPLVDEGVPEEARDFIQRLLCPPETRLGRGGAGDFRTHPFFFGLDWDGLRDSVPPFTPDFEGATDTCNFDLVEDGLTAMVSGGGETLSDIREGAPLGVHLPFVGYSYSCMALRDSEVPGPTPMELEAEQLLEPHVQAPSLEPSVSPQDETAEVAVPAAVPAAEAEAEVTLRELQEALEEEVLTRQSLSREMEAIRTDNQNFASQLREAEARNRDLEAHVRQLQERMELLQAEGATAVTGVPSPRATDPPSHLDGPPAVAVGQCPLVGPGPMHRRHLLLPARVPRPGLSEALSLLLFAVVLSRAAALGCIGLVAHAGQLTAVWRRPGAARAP

GAK = molecular target: T2, GAK (Homo sapiens, UniProt O14976)
T2 sequence (O14976 1-1311): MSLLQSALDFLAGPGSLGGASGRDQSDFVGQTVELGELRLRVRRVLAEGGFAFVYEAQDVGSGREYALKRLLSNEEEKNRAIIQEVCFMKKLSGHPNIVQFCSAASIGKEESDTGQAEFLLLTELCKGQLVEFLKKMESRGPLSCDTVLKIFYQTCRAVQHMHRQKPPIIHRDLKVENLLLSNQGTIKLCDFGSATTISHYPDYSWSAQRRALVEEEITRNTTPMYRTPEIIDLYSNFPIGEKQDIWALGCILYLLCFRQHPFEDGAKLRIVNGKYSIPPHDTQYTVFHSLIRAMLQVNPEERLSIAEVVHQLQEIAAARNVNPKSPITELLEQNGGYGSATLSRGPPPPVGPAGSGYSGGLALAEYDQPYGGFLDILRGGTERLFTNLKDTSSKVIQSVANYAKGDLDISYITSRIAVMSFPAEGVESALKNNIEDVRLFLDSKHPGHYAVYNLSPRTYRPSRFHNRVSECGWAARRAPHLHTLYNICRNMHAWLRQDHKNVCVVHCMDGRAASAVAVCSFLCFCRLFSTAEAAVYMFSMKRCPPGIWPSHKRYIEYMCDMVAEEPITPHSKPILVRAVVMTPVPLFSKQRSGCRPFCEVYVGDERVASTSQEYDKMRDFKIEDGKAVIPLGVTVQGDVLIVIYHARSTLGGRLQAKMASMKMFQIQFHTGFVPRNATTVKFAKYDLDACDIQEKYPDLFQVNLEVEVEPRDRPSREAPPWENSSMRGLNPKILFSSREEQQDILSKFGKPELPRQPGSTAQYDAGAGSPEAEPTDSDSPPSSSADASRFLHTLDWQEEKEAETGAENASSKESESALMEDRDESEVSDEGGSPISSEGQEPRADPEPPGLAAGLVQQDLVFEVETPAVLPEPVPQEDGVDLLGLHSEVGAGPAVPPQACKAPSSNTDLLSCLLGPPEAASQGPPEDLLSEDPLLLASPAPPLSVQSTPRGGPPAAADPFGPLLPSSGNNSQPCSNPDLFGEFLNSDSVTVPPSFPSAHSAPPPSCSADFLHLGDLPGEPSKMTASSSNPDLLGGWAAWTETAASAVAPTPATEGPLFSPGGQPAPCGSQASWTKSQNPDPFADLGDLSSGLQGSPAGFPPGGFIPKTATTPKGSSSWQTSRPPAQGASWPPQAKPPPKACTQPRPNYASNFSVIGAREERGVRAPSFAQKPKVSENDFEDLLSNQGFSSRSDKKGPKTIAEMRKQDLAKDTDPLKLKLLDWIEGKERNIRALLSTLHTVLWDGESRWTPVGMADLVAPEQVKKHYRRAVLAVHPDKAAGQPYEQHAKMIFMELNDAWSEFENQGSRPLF

JNK2 = JNK2 (Homo sapiens, UniProt P45984)
JNK3 = JNK3 (Homo sapiens, UniProt P53779)
MAP2K4 = molecular target: T3, MAP2K4 (Homo sapiens, UniProt P45985)
T3 sequence (P45985 1-399): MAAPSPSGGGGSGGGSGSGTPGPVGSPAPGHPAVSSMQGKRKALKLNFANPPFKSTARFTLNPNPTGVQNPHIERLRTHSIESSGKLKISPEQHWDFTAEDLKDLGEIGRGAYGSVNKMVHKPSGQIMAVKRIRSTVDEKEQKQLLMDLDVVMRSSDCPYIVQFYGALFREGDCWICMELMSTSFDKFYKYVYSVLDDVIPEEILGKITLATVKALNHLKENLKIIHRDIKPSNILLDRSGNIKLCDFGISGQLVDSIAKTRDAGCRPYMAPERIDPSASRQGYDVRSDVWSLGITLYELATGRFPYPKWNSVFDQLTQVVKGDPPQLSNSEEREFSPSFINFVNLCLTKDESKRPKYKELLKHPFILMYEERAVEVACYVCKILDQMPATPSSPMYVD

NEK7 = NEK7 (Homo sapiens, UniProt Q8TDX7)
NEK7, sequence (Q8TDX7 whole entry): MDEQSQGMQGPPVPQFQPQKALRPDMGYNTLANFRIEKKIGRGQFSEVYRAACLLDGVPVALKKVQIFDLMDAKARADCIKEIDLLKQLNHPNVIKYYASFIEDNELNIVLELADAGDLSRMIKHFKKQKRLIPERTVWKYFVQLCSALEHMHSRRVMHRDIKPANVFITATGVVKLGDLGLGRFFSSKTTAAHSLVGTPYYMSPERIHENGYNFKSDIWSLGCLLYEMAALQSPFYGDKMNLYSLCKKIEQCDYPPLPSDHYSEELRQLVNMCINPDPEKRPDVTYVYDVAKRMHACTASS

JNK2, sequence (P45984 whole entry): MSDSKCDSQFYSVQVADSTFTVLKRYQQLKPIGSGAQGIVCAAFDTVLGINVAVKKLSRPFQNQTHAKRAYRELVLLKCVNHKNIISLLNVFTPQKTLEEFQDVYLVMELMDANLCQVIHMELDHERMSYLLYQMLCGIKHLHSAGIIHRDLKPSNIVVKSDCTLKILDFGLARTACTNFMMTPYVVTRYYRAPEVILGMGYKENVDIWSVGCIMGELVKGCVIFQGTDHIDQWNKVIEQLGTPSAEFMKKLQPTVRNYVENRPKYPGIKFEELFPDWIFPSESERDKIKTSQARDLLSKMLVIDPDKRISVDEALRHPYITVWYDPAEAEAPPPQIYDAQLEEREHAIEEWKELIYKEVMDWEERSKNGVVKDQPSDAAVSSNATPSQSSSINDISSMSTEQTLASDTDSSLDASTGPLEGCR
JNK3, sequence (P53779 whole entry): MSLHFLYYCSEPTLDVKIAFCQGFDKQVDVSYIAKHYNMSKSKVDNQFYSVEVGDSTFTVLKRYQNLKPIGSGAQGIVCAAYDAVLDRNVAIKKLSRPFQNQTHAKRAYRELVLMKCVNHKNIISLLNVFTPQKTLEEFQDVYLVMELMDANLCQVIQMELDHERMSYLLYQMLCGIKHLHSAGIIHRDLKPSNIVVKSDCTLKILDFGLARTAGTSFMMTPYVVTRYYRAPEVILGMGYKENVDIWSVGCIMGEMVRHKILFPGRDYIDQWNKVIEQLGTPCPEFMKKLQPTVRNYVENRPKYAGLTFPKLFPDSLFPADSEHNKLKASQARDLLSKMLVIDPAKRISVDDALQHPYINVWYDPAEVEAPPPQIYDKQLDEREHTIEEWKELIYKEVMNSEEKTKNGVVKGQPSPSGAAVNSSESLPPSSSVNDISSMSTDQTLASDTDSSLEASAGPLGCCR
CK1d, sequence (P48730 whole entry): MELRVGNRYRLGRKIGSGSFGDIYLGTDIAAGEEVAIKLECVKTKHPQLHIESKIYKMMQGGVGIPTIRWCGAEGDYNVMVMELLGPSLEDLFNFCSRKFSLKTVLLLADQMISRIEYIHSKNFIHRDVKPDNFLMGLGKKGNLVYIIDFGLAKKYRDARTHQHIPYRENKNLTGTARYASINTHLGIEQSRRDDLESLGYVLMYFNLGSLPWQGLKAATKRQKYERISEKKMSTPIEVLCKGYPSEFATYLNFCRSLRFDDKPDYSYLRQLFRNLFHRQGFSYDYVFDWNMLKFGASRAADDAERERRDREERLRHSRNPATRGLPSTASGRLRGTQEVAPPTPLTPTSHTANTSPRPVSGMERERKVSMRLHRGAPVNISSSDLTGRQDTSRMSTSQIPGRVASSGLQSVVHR
CaMK1g, sequence (Q96NX5 whole entry): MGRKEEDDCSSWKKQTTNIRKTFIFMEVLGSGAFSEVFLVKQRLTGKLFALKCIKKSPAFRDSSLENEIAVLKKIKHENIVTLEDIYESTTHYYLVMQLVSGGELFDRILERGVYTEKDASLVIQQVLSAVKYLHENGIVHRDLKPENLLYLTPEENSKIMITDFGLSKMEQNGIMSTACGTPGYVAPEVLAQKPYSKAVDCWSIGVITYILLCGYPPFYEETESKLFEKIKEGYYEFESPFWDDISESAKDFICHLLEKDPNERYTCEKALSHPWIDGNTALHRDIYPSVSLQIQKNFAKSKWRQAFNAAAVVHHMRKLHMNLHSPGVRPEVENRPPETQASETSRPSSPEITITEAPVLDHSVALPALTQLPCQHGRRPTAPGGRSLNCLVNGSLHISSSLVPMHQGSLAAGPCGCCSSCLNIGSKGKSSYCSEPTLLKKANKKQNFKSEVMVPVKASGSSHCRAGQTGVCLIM

## Cc1cccc(-c2ccc(-c3cc4cnc(NC(CO)CO)nc4n(CCCCN)c3=O)c(Cl)c2)n1 [compound 24, 8-(4-Aminobutyl)-6-(2-chloro-4-(6-methylpyridin-2-yl)phenyl)-2-((1,3-dihydroxypropan-2-yl)amino)pyrido[2,3-d]pyrimidin-7(8H)-one]
BRD4
  ΔTm MR24 (24): -1.7 °C
CK1d
  ΔTm MR24 (24): 1.2 °C
CaMK1g
  ΔTm MR24 (24): 1.4 °C
DMPK1
  ΔTm MR24 (24): -1.3 °C
GAK
  ΔTm MR24 (24): 3.9 °C
JNK2
  ΔTm MR24 (24): 0.4 °C
JNK3
  ΔTm MR24 (24): 3.7 °C
MAP2K4
  ΔTm MR24 (24): 5.0 °C
NEK7
  ΔTm MR24 (24): -0.9 °C

## Cc1cccc(-c2ccc(-c3cc4cnc(NCCCc5ccc(N)cc5)nc4n(CCCCN)c3=O)c(Cl)c2)n1 [compound 25, 8-(4-Aminobutyl)-2-((3-(4-aminophenyl)propyl)amino)-6-(2-chloro-4-(6-methylpyridin-2-yl)phenyl)pyrido[2,3-d]pyrimidin-7(8H)-one]
BRD4
  ΔTm 25: -2.9 °C
CK1d
  ΔTm 25: 3.1 °C
CaMK1g
  ΔTm 25: 6.5 °C
DMPK1
  ΔTm 25: -2.7 °C
GAK
  ΔTm 25: 6.9 °C
JNK2
  ΔTm 25: 2.6 °C
JNK3
  ΔTm 25: 3.2 °C
MAP2K4
  ΔTm 25: 7.9 °C
NEK7
  ΔTm 25: -0.5 °C

## CNc1ncc2cc(-c3ccc(-c4cccc(C)n4)cc3Cl)c(=O)n(CCC3CCNCC3)c2n1 [compound 22, 6-(2-Chloro-4-(6-methylpyridin-2-yl)phenyl)-2-(methylamino)-8-(2-(piperidin-4-yl)ethyl)pyrido[2,3-d]pyrimidin-7(8H)-one]
BRD4
  ΔTm 22: 0.0 °C
CK1d
  ΔTm 22: 2.1 °C
CaMK1g
  ΔTm 22: 5.1 °C
DMPK1
  ΔTm 22: -1.7 °C
GAK
  ΔTm 22: 9.7 °C
JNK2
  ΔTm 22: 0.3 °C
JNK3
  ΔTm 22: 3.3 °C
MAP2K4
  ΔTm 22: 6.1 °C
NEK7
  ΔTm 22: 0.2 °C

## CNc1ncc2cc(-c3ccc(-c4cccc(C)n4)cc3Cl)c(=O)n(CCCCN)c2n1 [compound 20, MRLW5]
BRD4
  ΔTm MRLW5 (20): -0.7 °C
CK1d
  ΔTm MRLW5 (20): 0.8 °C
CaMK1g
  ΔTm MRLW5 (20): 3.9 °C
DMPK1
  ΔTm MRLW5 (20): 0.8 °C
GAK
  ΔTm MRLW5 (20): 7.7 °C
JNK2
  ΔTm MRLW5 (20): 0.3 °C
JNK3
  ΔTm MRLW5 (20): 1.3 °C
MAP2K4
  ΔTm MRLW5 (20): 7.7 °C
NEK7
  ΔTm MRLW5 (20): -0.1 °C

## Cc1cccc(-c2ccc(-c3cc4cnc(NCCCN5CCOCC5)nc4n(CCCCN)c3=O)c(Cl)c2)n1 [compound 26, MR26]
BRD4
  ΔTm MR26 (26): -1.2 °C
CK1d
  ΔTm MR26 (26): 1.9 °C
CaMK1g
  ΔTm MR26 (26): 4.3 °C
DMPK1
  ΔTm MR26 (26): -1.3 °C
GAK
  ΔTm MR26 (26): 3.6 °C
JNK2
  ΔTm MR26 (26): 0.0 °C
JNK3
  ΔTm MR26 (26): 1.1 °C
MAP2K4
  ΔTm MR26 (26): 5.6 °C
NEK7
  ΔTm MR26 (26): -0.7 °C

## CNc1ncc2cc(-c3ccc(-c4cccc(C)n4)cc3Cl)c(=O)n(C[C@H]3CC[C@H](N)CC3)c2n1 [compound 23, 23]
BRD4
  ΔTm 23: -1.1 °C
CK1d
  ΔTm 23: 2.3 °C
CaMK1g
  ΔTm 23: 9.5 °C
DMPK1
  ΔTm 23: -2.8 °C
GAK
  ΔTm 23: 9.3 °C
JNK2
  ΔTm 23: 1.3 °C
JNK3
  ΔTm 23: 1.3 °C
MAP2K4
  ΔTm 23: 8.2 °C
NEK7
  ΔTm 23: -0.3 °C

— publication doi:10.1101/2023.11.24.568596v1 (biorxiv, 2023)
